Laboratory results reported in patent US20220242870A1, “HETEROCYCLE-FUSED PYRIMIDINE DERIVATIVE AND USE THEREOF” (VORONOI Inc., priority 2019, published 2022).

Assays:
Experiment in all cases: scanMAX kinase assay panel
Format in all cases: binding
Conditions in all cases: read-out: control percentage (% control)
FGR = target: T1, FGR (Homo sapiens, UniProt P09769)
T1 construct: purchased DiscoverX scanMAX kinase assay panel
In short: (§1)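 Compound was applied as a 1 μM solution in DMSO across the scanMAX kinase panel. Activity is reported as % control, scaled between a positive control (0%) and the DMSO negative control (100%).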

FLT3(K663Q) = target: T2, FLT3(K663Q) (Homo sapiens, UniProt P36888, K663Q)
T2 construct: purchased DiscoverX scanMAX kinase assay panel
In short: as §1

ALK = target: T3, ALK (Homo sapiens, UniProt Q9UM73)
T3 construct: purchased DiscoverX (scanMAX panel, contract assay)
In short: as §1

DMPK = target: T4, DMPK (Homo sapiens, UniProt Q09013)
T4 construct: purchased DiscoverX scanMAX kinase assay panel
In short: as §1

TRKB = target: T5, TRKB (Homo sapiens, UniProt Q16620)
T5 construct: purchased DiscoverX
In short: as §1

PIP5K2C = target: T6, PIP5K2C (Homo sapiens, UniProt Q8TBX8)
T6 construct: purchased DiscoverX scanMAX kinase assay panel
In short: as §1

[1] = target: T7, ABL1(Q252H)-nonphosphorylated (Homo sapiens, UniProt P00519, Q252H)
T7 construct: purchased DiscoverX (scanMAX panel, contract assay)
In short: as §1

PIP5K1A = target: T8, PIP5K1A (Homo sapiens, UniProt Q99755)
T8 construct: purchased DiscoverX scanMAX kinase assay panel
In short: as §1

SNARK = target: T9, SNARK (Homo sapiens, UniProt Q9H093)
T9 construct: purchased DiscoverX
In short: as §1

LRRK2 = target: T10, LRRK2 (Homo sapiens, UniProt Q5S007)
T10 construct: purchased DiscoverX scanMAX kinase assay panel
In short: as §1

MET(M1250T) = target: T11, MET(M1250T) (Homo sapiens, UniProt P08581, M1250T)
T11 construct: purchased DiscoverX scanMAX kinase assay panel
In short: as §1

MET(Y1235D) = target: T12, MET(Y1235D) (Homo sapiens, UniProt P08581, Y1235D)
T12 construct: purchased DiscoverX scanMAX kinase assay panel
In short: as §1

JNK1 = target: T13, JNK1 (Homo sapiens, UniProt P45983)
T13 construct: purchased DiscoverX scanMAX kinase assay panel
In short: as §1

FLT3(D835H) = target: T14, FLT3(D835H) (Homo sapiens, UniProt P36888, D835H)
T14 construct: purchased DiscoverX scanMAX kinase assay panel
In short: as §1

MAP3K2 = target: T15, MAP3K2 (Homo sapiens, UniProt Q9Y2U5)
T15 construct: purchased DiscoverX scanMAX kinase assay panel
In short: as §1

MST3 = target: T16, MST3 (Homo sapiens, UniProt Q9Y6E0)
T16 construct: purchased DiscoverX scanMAX kinase assay panel
In short: as §1

ITK = target: T17, ITK (Homo sapiens, UniProt Q08881)
T17 construct: purchased DiscoverX scanMAX kinase assay panel
In short: as §1

BLK = target: T18, BLK (Homo sapiens, UniProt P51451)
T18 construct: purchased DiscoverX (scanMAX panel, contract assay)
In short: as §1

LRRK2(G2019S) = target: T19, LRRK2(G2019S) (Homo sapiens, UniProt Q5S007, G2019S)
T19 construct: purchased DiscoverX scanMAX kinase assay panel
In short: as §1

[2] = target: T20, ABL1(H396P)-nonphosphorylated (Homo sapiens, UniProt P00519, H396P)
T20 construct: purchased DiscoverX (scanMAX panel, contract assay)
In short: as §1

RET(M918T) = target: T21, RET(M918T) (Homo sapiens, UniProt P07949, M918T)
T21 construct: purchased DiscoverX scanMAX kinase assay panel
In short: as §1

PIP5K2B = target: T22, PIP5K2B (Homo sapiens, UniProt P78356)
T22 construct: purchased DiscoverX scanMAX kinase assay panel
In short: as §1

SRPK3 = target: T23, SRPK3 (Homo sapiens, UniProt Q9UPE1)
T23 construct: purchased DiscoverX
In short: as §1

TNIK = target: T24, TNIK (Homo sapiens, UniProt Q9UKE5)
T24 construct: purchased DiscoverX
In short: as §1

MEK2 = target: T25, MEK2 (Homo sapiens, UniProt P36507)
T25 construct: purchased DiscoverX scanMAX kinase assay panel
In short: as §1

FLT3(D835V) = target: T26, FLT3(D835V) (Homo sapiens, UniProt P36888, D835V)
T26 construct: purchased DiscoverX scanMAX kinase assay panel
In short: as §1

[3] = target: T27, TYK2(JH2domain-pseudokinase) (Homo sapiens, UniProt P29597)
T27 construct: TYK2(JH2domain-pseudokinase); purchased DiscoverX
In short: as §1

YSK4 = target: T28, YSK4 (Homo sapiens, UniProt Q56UN5)
T28 construct: purchased DiscoverX
In short: as §1

TRKC = target: T29, TRKC (Homo sapiens, UniProt Q16288)
T29 construct: purchased DiscoverX
In short: as §1

MAP3K3 = target: T30, MAP3K3 (Homo sapiens, UniProt Q99759)
T30 construct: purchased DiscoverX scanMAX kinase assay panel
In short: as §1

STK16 = target: T31, STK16 (Homo sapiens, UniProt O75716)
T31 construct: purchased DiscoverX
In short: as §1

EGFR(L861Q) = target: T32, EGFR(L861Q) (Homo sapiens, UniProt P00533, L861Q)
T32 construct: purchased DiscoverX scanMAX kinase assay panel
In short: as §1

[4] = target: T33, RSK4(Kin.Dom.2-C-terminal) (Homo sapiens, UniProt Q9UK32)
T33 construct: RSK4(Kin.Dom.2-C-terminal); purchased DiscoverX scanMAX kinase assay panel
In short: as §1

JNK2 = target: T34, JNK2 (Homo sapiens, UniProt P45984)
T34 construct: purchased DiscoverX scanMAX kinase assay panel
In short: as §1

T10 sequence (Q5S007 whole entry): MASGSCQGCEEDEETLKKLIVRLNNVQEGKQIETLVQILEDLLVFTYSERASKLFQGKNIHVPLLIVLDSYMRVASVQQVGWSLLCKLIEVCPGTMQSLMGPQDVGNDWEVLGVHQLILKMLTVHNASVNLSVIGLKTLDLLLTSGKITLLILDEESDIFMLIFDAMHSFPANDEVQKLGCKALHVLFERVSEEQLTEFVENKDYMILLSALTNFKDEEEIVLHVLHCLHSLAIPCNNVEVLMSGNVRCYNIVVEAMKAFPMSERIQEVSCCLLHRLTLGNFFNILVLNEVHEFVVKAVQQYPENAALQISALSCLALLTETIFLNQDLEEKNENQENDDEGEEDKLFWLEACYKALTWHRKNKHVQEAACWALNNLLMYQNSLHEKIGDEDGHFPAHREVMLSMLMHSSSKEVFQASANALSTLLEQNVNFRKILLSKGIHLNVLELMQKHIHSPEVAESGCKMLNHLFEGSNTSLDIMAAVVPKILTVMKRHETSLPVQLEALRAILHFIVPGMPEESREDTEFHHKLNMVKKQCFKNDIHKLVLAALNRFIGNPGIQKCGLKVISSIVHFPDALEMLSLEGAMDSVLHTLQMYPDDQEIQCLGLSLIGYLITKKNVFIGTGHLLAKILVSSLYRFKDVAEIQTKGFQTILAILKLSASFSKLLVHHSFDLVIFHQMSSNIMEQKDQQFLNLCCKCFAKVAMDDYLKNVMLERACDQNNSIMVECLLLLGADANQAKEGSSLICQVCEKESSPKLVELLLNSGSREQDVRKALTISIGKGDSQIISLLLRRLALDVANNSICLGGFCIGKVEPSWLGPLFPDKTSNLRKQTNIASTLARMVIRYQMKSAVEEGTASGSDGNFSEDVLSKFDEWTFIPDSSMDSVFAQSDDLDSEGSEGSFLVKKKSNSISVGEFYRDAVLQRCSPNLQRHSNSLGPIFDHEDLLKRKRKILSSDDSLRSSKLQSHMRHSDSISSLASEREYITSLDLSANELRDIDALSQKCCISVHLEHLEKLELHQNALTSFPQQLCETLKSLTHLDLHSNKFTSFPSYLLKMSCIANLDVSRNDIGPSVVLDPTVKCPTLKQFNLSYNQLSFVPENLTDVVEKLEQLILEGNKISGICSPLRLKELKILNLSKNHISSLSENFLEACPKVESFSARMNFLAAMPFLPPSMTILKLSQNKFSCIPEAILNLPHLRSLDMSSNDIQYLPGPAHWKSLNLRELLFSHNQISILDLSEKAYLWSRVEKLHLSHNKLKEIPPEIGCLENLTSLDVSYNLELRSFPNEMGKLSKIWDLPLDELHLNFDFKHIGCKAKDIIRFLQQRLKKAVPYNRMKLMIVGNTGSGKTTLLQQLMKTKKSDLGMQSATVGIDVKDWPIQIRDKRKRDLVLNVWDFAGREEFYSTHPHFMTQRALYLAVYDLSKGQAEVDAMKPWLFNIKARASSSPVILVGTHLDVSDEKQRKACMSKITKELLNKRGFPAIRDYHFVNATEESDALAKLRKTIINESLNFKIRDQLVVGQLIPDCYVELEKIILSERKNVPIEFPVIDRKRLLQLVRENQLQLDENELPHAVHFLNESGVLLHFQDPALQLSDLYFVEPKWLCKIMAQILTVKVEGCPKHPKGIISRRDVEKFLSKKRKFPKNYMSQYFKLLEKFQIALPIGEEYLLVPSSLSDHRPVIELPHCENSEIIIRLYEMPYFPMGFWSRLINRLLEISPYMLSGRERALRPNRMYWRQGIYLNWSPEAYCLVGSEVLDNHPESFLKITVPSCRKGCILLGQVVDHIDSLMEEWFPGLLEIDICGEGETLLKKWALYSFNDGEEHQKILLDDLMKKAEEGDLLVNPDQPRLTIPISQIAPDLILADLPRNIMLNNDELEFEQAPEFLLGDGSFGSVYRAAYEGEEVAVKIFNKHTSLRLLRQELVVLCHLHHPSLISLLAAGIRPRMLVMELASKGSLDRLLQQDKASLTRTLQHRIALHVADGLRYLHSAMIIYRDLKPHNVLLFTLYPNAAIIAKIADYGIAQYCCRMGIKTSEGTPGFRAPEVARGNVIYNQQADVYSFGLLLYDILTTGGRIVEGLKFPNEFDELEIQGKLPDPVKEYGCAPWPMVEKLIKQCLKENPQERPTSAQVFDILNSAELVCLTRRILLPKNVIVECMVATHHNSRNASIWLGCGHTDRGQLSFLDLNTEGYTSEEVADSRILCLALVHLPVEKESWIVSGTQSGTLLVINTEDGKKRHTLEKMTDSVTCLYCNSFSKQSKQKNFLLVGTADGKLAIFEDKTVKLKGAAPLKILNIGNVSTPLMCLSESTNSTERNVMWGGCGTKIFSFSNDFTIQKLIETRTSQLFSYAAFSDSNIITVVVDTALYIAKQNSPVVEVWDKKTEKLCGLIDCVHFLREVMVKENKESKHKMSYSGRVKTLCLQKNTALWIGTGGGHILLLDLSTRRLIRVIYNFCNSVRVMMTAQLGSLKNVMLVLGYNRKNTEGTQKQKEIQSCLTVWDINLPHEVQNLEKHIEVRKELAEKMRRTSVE
T33 sequence (Q9UK32 426-683 limits assumed): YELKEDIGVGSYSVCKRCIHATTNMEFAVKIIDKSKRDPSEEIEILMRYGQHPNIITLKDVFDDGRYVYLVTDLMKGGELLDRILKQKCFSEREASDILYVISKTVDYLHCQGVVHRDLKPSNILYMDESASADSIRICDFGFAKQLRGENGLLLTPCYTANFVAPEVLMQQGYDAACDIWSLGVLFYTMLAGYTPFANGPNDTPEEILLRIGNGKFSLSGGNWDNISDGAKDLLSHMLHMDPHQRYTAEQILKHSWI
T29 sequence (Q16288 32-839): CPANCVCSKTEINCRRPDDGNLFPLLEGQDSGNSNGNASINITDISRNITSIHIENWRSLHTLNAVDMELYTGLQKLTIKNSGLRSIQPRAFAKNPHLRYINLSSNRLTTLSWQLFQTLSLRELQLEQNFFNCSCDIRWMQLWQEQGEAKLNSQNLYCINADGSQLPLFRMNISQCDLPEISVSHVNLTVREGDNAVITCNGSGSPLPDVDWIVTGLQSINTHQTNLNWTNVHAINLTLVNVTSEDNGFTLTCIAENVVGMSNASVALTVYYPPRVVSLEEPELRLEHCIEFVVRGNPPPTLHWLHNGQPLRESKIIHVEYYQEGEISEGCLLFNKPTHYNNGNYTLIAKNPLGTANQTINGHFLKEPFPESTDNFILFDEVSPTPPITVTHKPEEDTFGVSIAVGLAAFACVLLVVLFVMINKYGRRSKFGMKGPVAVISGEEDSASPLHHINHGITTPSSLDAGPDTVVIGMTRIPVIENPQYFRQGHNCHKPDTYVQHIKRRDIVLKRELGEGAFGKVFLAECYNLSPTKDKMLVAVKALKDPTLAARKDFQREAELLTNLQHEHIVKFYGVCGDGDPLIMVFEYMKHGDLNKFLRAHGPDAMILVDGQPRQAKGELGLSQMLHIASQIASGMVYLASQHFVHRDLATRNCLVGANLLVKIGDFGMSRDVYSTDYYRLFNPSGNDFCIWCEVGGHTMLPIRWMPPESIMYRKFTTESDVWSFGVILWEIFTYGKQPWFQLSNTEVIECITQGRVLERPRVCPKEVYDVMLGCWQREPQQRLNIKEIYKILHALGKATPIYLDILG
T16 sequence (Q9Y6E0 whole entry): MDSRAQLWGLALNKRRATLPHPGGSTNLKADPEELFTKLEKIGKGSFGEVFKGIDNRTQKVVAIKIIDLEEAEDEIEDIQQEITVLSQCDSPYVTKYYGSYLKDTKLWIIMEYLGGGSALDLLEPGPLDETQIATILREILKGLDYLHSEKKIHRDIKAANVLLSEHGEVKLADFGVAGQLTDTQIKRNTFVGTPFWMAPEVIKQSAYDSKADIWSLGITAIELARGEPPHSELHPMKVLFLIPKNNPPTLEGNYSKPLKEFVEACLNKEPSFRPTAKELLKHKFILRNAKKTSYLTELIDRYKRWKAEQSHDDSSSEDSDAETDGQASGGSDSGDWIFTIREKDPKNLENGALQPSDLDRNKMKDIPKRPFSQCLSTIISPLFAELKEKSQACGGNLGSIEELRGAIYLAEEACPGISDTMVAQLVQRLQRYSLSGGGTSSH
T30 sequence (Q99759 whole entry): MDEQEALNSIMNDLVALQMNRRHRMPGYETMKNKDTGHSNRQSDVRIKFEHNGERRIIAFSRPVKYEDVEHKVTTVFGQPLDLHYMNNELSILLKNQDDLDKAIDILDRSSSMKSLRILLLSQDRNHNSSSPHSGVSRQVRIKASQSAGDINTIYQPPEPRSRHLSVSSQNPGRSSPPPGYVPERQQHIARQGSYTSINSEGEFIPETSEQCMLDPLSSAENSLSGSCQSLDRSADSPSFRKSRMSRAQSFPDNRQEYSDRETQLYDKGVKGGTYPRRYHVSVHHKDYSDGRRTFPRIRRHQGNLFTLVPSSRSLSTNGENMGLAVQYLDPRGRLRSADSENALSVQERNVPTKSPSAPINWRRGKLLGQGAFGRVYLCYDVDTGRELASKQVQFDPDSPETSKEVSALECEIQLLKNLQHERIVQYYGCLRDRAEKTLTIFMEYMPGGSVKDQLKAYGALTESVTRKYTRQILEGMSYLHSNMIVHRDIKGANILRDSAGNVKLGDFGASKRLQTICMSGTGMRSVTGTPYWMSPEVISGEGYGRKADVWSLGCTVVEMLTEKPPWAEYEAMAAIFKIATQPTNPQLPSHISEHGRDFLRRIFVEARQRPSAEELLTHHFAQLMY
T27 sequence (P29597 589-875 limits assumed): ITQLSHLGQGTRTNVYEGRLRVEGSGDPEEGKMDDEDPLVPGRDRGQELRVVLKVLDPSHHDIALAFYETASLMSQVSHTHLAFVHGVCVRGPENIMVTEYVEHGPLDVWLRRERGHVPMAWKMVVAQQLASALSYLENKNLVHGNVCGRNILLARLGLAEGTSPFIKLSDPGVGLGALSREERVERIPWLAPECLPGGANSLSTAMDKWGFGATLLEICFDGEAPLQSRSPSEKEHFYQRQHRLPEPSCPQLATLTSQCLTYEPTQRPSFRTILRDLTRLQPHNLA
T19 sequence (Q5S007 whole entry G2019S): as the sequence (Q5S007 whole entry) above, with G2019S counted along it

With `CN1CCN(c2ccc(Nc3nc(N4OCC[C@H]4c4ccccc4)c4cc[nH]c4n3)cc2)CC1` [Example 74, (S)-N-(4-(4-methylpiperazin-1-yl)phenyl)-4-(3-phenylisoxazolidin-2-yl)-7H-pyrrolo[2,3-d]pyrimidin-2-amine] the remaining binding at 1 µM (FGR) was 17%, the remaining binding at 1 µM (FLT3(K663Q)) was 2.3% and the remaining binding at 1 µM (ALK) was 31%. For the same compound, the remaining binding at 1 µM (DMPK) was 0.65%, the remaining binding at 1 µM (TRKB) was 8.3% and the remaining binding at 1 µM (PIP5K2C) was 26%. The remaining binding at 1 µM [1] was 24%, the remaining binding at 1 µM (PIP5K1A) was 1.2% and the remaining binding at 1 µM (SNARK) was 3.7%. The remaining binding at 1 µM (LRRK2) was 28%, the remaining binding at 1 µM (MET(M1250T)) was 11% and the remaining binding at 1 µM (MET(Y1235D)) was 7%. The remaining binding at 1 µM (JNK1) was 2.7%, the remaining binding at 1 µM (FLT3(D835H)) was 21% and the remaining binding at 1 µM (MAP3K2) was 14%. The remaining binding at 1 µM (MST3) was 32%, the remaining binding at 1 µM (ITK) was 5.1% and the remaining binding at 1 µM (BLK) was 19%. The remaining binding at 1 µM (LRRK2(G2019S)) was 25%, the remaining binding at 1 µM [2] was 18% and the remaining binding at 1 µM (RET(M918T)) was 20%. It also gave a remaining binding at 1 µM (PIP5K2B) of 18%, a remaining binding at 1 µM (SRPK3) of 13% and a remaining binding at 1 µM (TNIK) of 27%. The remaining binding at 1 µM (MEK2) was 17%, the remaining binding at 1 µM (FLT3(D835V)) was 1.7% and the remaining binding at 1 µM [3] was 2.6%. It also gave a remaining binding at 1 µM (YSK4) of 8.6%, a remaining binding at 1 µM (TRKC) of 21% and a remaining binding at 1 µM (MAP3K3) of 25%. It also gave a remaining binding at 1 µM (STK16) of 26%, a remaining binding at 1 µM (EGFR(L861Q)) of 30% and a remaining binding at 1 µM [4] of 31%. The remaining binding at 1 µM (JNK2) was 29%.
